Counter-ions that a name gives are not always drawn.

Data on twelve compounds can be found in patent US4521430A, “1,5-Benzothiazepin-4-one, their pharmaceutical compositoins, and methods of use” (Tanabe Seiyaku Co., Ltd., priority 1983, dated 1985).

In data set [1] the test system is platelet aggregation. The experiment in a line: Platelet aggregation-inhibiting activity, collagen, platelet-rich plasma (Experiment 4). It counts as cell-based, Sprague-Dawley rats. Also noted: key: -: the test compound showed less than 10% inhibition of platelet aggregation; +: the test compound showed not less than 10% inhibition of platelet aggregation but said percentage inhibition was lower than that of acetylsalicylic acid (100 μg/ml); ++: the test compound showed the platelet aggregation-inhibiting activity at least as strong as that of acetylsalicylic acid (100 μg/ml). Particulars: final concentration 100 μg/ml, rat PRP, 37° C., Table 3. The text has this:
Blood was collected from the abdominal aorta of male Sprague-Dawley rats which were anesthetized with ether. Nine volumes of said blood were mixed with one volume of an aqueous 3.8% (w/v) trisodium citrate solution, and the mixture was centrifuged to give platelet-rich plasma ("PRP") as the supernatant solution. The bottom layer was further centrifuged to give platelet-poor plasma ("PPP") as the supernatant solution. Platelet counts were adjusted to 0.8-1×10^6 /mm^3 for PRP by dilution with PPP. After a mixture of 200 μl of the diluted PRP and 25 μl of a test compound solution (final concentration: 100 μg/ml) was stirred for 2 minutes at 37° C., 25 μl of a collagen solution (Biochim. Biophys. Acta, 186, page 254(1969)) were added thereto. The degree of platelet aggregation was estimated by Born's method (Nature, 194, page 927(1962)) and percentage inhibition of platelet aggregation was calculated therefrom.

Data set [2] deals with coronary blood flow of the isolated heart. The experiment in a line: Coronary vasodilating activity: Langendorff's method, coronary blood flow of isolated heart (Experiment 3). Details: species or system guinea pig. Particulars: isolated guinea pig heart, Langendorff; Table 2. The protocol: (§1) For example, when the cerebral vasodilating activity is evaluated by examining vertebral artery blood flow in anesthetized dogs to which a test compound is intraarterially administered, said activity of (+)-cis-2-(4-methoxyphenyl)-3-(2-chloro-4-nitrobenzoyloxy)-5-[2-(dimethylamino)ethyl]-2,3-dihydro-1,5-benzothiazepin-4-(5H)-one fumarate is 4.5 times stronger than that of papaverine. On the other hand, the coronary vasodilating activity of (+)-cis-2-(4-methoxyphenyl)-3-(2-chloro-4-nitrobenzoyloxy)-5-[2-(dimethylamino)ethyl]-2,3-dihydro-1,5-benzothiazepin-4(5H)-one fumarate when examined by the Langendorff method using isolated hearts of guinea pigs is 10 times stronger than that of papaverine.
Langendorff's method was used for testing the effect on the coronary blood flow of the isolated heart of guinea pig (about 280 g). The isolated heart was perfused with Locke-Ringer solution containing 2% of defibrinated rabbit blood, which had been saturated with a mixed gas of 95% O2 and 5% CO2 (30° C.). Perfusion pressure was kept at 40 cm H2 O. A solution of a test compound in an aqueous 5% glucose solution was injected into the perfusing solution at a volume of 0.1 ml per heart. The outflow of the perfusate was measured by means of a drop counter.
The coronary vasodilating activity of the test compound was expressed as "±" if the increase in coronary blood flow is less than 0.5 ml/minute at a dose of 100 μg/heart; "+" if the increase is not less than 0.5 ml/minute at a dose of 100 μg/heart; "++" if the increase is not less than 0.5 ml/minute at a dose of 30 μg/heart; and "+++" if the increase is not less than 0.5 ml/minute at a dose of not more than 10 μg/heart.

Data set [3] concerns cerebral and/or coronary vasodilating activity. Particulars: Japanese Patent Publication Nos. 43784/1971 and 8544/1972; cited from earlier work.
Data set [4] addresses calmodulin (Homo sapiens, UniProt P0DP23). Briefly: Anti-calmodulin activity: activation of phosphodiesterase activity by calmodulin (Experiment 5). It counts as biochemical. Particulars: pH 7.5, 30° C.; Table 4; read-out: ID50 (concentration for 50% inhibition of the activation of phosphodiesterase activity by calmodulin).
For data set [5], the system named is vertebral artery blood flow. The experiment in a line: Cerebral vasodilating activity: vertebral artery blood flow in anesthetized dogs, injection into vertebral artery (Experiment 1). It counts as in vivo. Particulars: anesthetized male dogs, injected into vertebral artery; Table 1. The protocol: as §1
(Cerebral vasodilating activity)
Male dogs weighing 10 to 20 kg were anesthetized with sodium pentobarbital (30 mg/kg, intravenous injection). The blood flow in vertebral artery was measured continuously by means of an electromagnetic flowmeter under artificial respiration. A test compound dissolved in an aqueous 5% glucose solution was injected into vertebral artery. The cerebral vasodilating activity of the test compound was estimated in terms of "the potency ratio of said compound to papaverin" which was calculated from the dose-responsecurves thereof.

Data set [6] has as its system atrioventricular conduction. Particulars: known calcium-antagonistic vasodilator; cited from earlier work.

As to `COc1ccc([C@@H]2Sc3ccccc3N(CCN(C)C)C(=O)[C@@H]2OC(=O)c2ccccc2[N+](=O)[O-])cc1.Cl` (racemic) [(±)-cis-2-(4-methoxyphenyl)-3-(2-nitrobenzoyloxy)-5-[2-(dimethylamino)ethyl]-2,3-dihydro-1,5-benzothiazepin-4(5H)-one hydrochloride], the “Platelet aggregation-inhibiting activity (class)” value in data set [1] is recorded as “++”.

For the compound `COc1ccc([C@@H]2Sc3ccccc3N(CCN(C)C)C(=O)[C@@H]2OC(=O)c2ccc([N+](=O)[O-])cc2)cc1.O=C(O)/C=C\C(=O)O` (racemic) [(±)-cis-2-(4-methoxyphenyl)-3-(4-nitrobenzoyloxy)-5-[2-(dimethylamino)ethyl]-2,3-dihydro-1,5-benzothiazepin-4(5H)-one maleate], the “Coronary vasodilating activity (class)” value in data set [2] was “+++ (the increase is not less than 0.5 ml/minute at a dose of not more than 10 μg/heart)”.

Consider `COc1ccc(C2Sc3ccccc3N(CCN(C)C)C(=O)C2OC(=O)c2ccccc2)cc1` (stereo not drawn) [2-(4-methoxyphenyl)-3-benzoyloxy-5-[2-(dimethylamino)ethyl]-2,3-dihydro-1,5-benzothiazepin-4(5H)-one], for which the “coronary vasodilating activity (known)” value in data set [3] was “have a coronary vasodilating activity”.

Consider `COc1ccc(C2Sc3ccccc3N(CCN(C)C)C(=O)C2OCc2ccccc2)cc1` (stereo not drawn) [2-(4-methoxyphenyl)-3-benzyloxy-5-[2-(dimethylamino)ethyl]-2,3-dihydro-1,5-benzothiazepin-4(5H)-one], for which the “coronary vasodilating activity (known)” value in data set [3] is “have a coronary vasodilating activity”.

For the compound `CCN(C)CCN1C(=O)[C@H](OC(=O)c2ccc([N+](=O)[O-])cc2Cl)[C@H](c2ccc(OC)cc2)Sc2ccccc21` [(+)-cis-2-(4-methoxyphenyl)-3-(2-chloro-4-nitrobenzoyloxy)-5-[2-(N-methyl-N-ethylamino)ethyl]-2,3-dihydro-1,5-benzothiazepin-4(5H)-one oxalate], the IC50 in data set [4] was determined as 2100 nM.

Turning to `CCN(CC)CCN1C(=O)[C@H](OC(=O)c2ccc([N+](=O)[O-])cc2Cl)[C@H](c2ccc(OC)cc2)Sc2ccccc21.Cl` [(+)-cis-2-(4-methoxyphenyl)-3-(2-chloro-4-nitrobenzoyloxy)-5-[2-(diethylamino)ethyl]-2,3-dihydro-1,5-benzothiazepin-4(5H)-one hydrochloride], the “Cerebral vasodilating activity (potency ratio to papaverin, class)” value in data set [5] was “+++ (the potency ratio is not less than 3)”. The IC50 in data set [4] was 2100 nM.

Take `COc1ccc([C@@H]2Sc3ccccc3N(CCN(C)C)C(=O)[C@@H]2OC(=O)c2ccc([N+](=O)[O-])c(OC)c2)cc1` [(+)-cis-2-(4-methoxyphenyl)-3-(3-methoxy-4-nitrobenzoyloxy)-5-[2-(dimethylamino)ethyl]-2,3-dihydro-1,5-benzothiazepin-4(5H)-one methanesulfonate]: the IC50 in data set [4] turned out to be 2700 nM.

Turning to `COc1ccc([C@@H]2Sc3ccccc3N(CCN(C)C)C(=O)[C@@H]2OC(=O)c2ccc([N+](=O)[O-])c(C)c2)cc1.Cl` [(+)-cis-2-(4-methoxyphenyl)-3-(3-methyl-4-nitrobenzoyloxy)-5-[2-(dimethylamino)ethyl]-2,3-dihydro-1,5-benzothiazepin-4(5H)-one hydrochloride], the “Cerebral vasodilating activity (potency ratio to papaverin, class)” value in data set [5] is on record as “+++ (the potency ratio is not less than 3)”. Also, in data set [2], the “Coronary vasodilating activity (class)” value is listed as “+++ (the increase is not less than 0.5 ml/minute at a dose of not more than 10 μg/heart)”. The “Platelet aggregation-inhibiting activity (class)” value in data set [1] is “++”. Further, the IC50 in data set [4] is 2500 nM.

For the compound `COc1ccc([C@@H]2Sc3ccccc3N(CCN(C)C)C(=O)[C@@H]2OC(=O)c2ccc(Cl)cc2[N+](=O)[O-])cc1.Cl` [(+)-cis-2-(4-methoxyphenyl)-3-(4-chloro-2-nitrobenzoyloxy)-5-[2-(dimethylamino)ethyl]-2,3-dihydro-1,5-benzothiazepin-4(5H)-one hydrochloride], the “Cerebral vasodilating activity (potency ratio to papaverin, class)” value in data set [5] is “+++ (the potency ratio is not less than 3)”. Also, the “Coronary vasodilating activity (class)” value in data set [2] is listed as “+++ (the increase is not less than 0.5 ml/minute at a dose of not more than 10 μg/heart)”.

In the case of `COc1ccc([C@@H]2Sc3ccccc3N(CCN(C)C)C(=O)[C@@H]2OC(=O)c2ccc(Cl)c([N+](=O)[O-])c2)cc1.O=C(O)C(=O)O` [(+)-cis-2-(4-methoxyphenyl)-3-(4-chloro-3-nitrobenzoyloxy)-5-[2-(dimethylamino)ethyl]-2,3-dihydro-1,5-benzothiazepin-4(5H)-one oxalate], the “Cerebral vasodilating activity (potency ratio to papaverin, class)” value in data set [5] was “+++ (the potency ratio is not less than 3)”. In data set [4], the IC50 worked out at 1400 nM.

As for `COc1ccc([C@@H]2Sc3ccccc3N(CCN(C)C)C(=O)[C@@H]2OC(=O)c2ccc([N+](=O)[O-])cc2)cc1.O=C(O)/C=C/C(=O)O` [(+)-cis-2-(4-methoxyphenyl)-3-(4-nitrobenzoyloxy)-5-[2-(dimethylamino)ethyl]-2,3-dihydro-1,5-benzothiazepin-4(5H)-one fumarate], in data set [5], the “Cerebral vasodilating activity (potency ratio to papaverin, class)” value is “+++ (the potency ratio is not less than 3)”. Besides, the “Coronary vasodilating activity (class)” value in data set [2] was “+++ (the increase is not less than 0.5 ml/minute at a dose of not more than 10 μg/heart)”. Besides, the “Platelet aggregation-inhibiting activity (class)” value in data set [1] is “++”. The IC50 in data set [4] amounted to 4500 nM.

For the compound `COc1ccc(CCN(C)CCCC(C#N)(c2ccc(OC)c(OC)c2)C(C)C)cc1OC` (stereo not drawn) [verapamil, 5-[(3,4-dimethoxyphenethyl)methylamino]-2-(3,4-dimethoxyphenyl)-2-isopropylvaleronitrile], in data set [6], the “effect on atrioventricular conduction (known)” value is recorded as “inhibits atrioventricular conduction to cause the prolongation of atrioventricular conduction time”.
